Assay results: ChEMBL document CHEMBL3352712, “Structural modifications of coumarin derivatives: Determination of antioxidant and lipoxygenase (LOX) inhibitory activity” (Bioorg Med Chem, 2014); call rule not given here

What was measured:
[1] = Antioxidant activity assessed as inhibition of AAPH-induced linoleic acid lipid peroxidation at 100 uM; assay type: physicochemical
[2] = Antioxidant activity assessed as DPPH radical scavenging activity at 100 uM after 60 mins by spectrophotometry; assay type: physicochemical; details: 1 h
[3] = molecular target: Lipoxygenase (Glycine max) (UniProt Q39829); experiment: Inhibition of soybean LOX assessed as reduction in conversion of sodium linoleate to 13-hydroperoxylinoleic acid at 100 uM by UV spectroscopy
[4] = Antioxidant activity assessed as DPPH radical scavenging activity at 100 uM after 20 mins by spectrophotometry; assay type: physicochemical
[5] = molecular target: Lipoxygenase (Glycine max, UniProt Q39829); experiment: Inhibition of soybean LOX assessed as reduction in conversion of sodium linoleate to 13-hydroperoxylinoleic acid by UV spectroscopy

Row | SMILES | inhibition (INH) [1] [%] | inhibition (INH) [2] [%] | inhibition [3] [%] | inhibition (INH) [4] | IC50 [5] | IC50 ([5]; read-out: IC50) [µM]
1 | COc1ccc(-c2c(C)c3cc(Br)ccc3o/c2=N/Nc2ccccc2)cc1OC | 55 | 86 | 28 | 85% |  | 
2 | COc1ccc(-c2c(C)c3ccccc3o/c2=N/Nc2ccccc2)cc1 | 47 | 85 |  | 84% | Not Active | 
3 | COc1ccc(-c2cc3cc(Br)ccc3oc2=O)cc1OC | 56 | 12 |  | 11% |  | 81
4 | CC(C)=CCOc1ccc(-c2c(C)c3cc(Br)cc(Br)c3oc2=O)cc1OCC=C(C)C | 100 | 9 |  | Not Active |  | 37
5 | COc1ccc(-c2c(C)c3cc(Cl)ccc3oc2=S)cc1OC | 50 | 9 |  | Not Active | Not Active | 
6 | COc1ccc(-c2c(C)c3cc(-c4ccc(C=O)cc4)ccc3oc2=O)cc1OC | 64 | 68 | 1 | 11% |  | 
7 | Cc1c(-c2ccc(O)c(O)c2)c(=O)oc2ccc(Br)cc12 | 75 | 62 |  | 77% |  | 75
8 | COc1ccc(-c2c(C)c3cc(Br)ccc3oc2=S)cc1OC | 96 | 21 |  | 26% |  | 65
9 | CC(C)=CCOc1ccc(-c2c(C)c3cc(Br)ccc3oc2=O)cc1OCC=C(C)C | 92 | 68 |  | 67% |  | 75
10 | COc1ccc(-c2c(C)c3ccccc3oc2=S)cc1 | 11 | 11 | 35 | 14% |  | 
11 | CC(C)=CCOc1ccc(-c2cc3cc(Br)ccc3oc2=O)cc1OCC=C(C)C | 99 | 5 |  | Not Active |  | 40
12 | COc1ccc(-c2c(C)c3cc(Br)cc(Br)c3oc2=O)cc1OC | 58 | 2 |  | 13% |  | 
13 | Cc1c(C)c2c(c(C)c1O)CCC(C)(C(=O)O)O2 (configuration not stated) [TROLOX] | 63 |  |  |  |  | 
14 | O=c1oc2ccc(Br)cc2cc1-c1ccc(O)c(O)c1 | 26 | 80 | 26 | 78% |  | 
15 | CC(Cc1ccc(O)c(O)c1)C(C)Cc1ccc(O)c(O)c1 (configuration not stated) [NORDIHYDROGUAIARETIC ACID] |  | 83 |  | 84% |  | 51
16 | COc1ccc(-c2ccc3oc(=O)c(-c4ccc(OC)c(OC)c4)c(C)c3c2)cc1 | 7 | 7 | 44 | 17% |  | 
17 | Cc1c(-c2ccc(O)c(O)c2)c(=O)oc2c(Br)cc(Br)cc12 | 75 | 78 | 7 | 76% |  | 
18 | Cc1c(-c2ccc(O)c(O)c2)c(=S)oc2ccc(Br)cc12 | 59 | 35 |  | 41% |  | 90
